Experimental findings from patent US10399988B2, “4-aminopyrazolo[3,4-d]pyrimidinylazabicyclo derivatives and pharmaceutical composition comprising the same” (Daewoong Pharmaceutical Co., Ltd., priority 2016, dated 2019) are described below.

Structures can show the parent of a compound that is named as a salt.

Sequence of BTK (Q06187 whole entry): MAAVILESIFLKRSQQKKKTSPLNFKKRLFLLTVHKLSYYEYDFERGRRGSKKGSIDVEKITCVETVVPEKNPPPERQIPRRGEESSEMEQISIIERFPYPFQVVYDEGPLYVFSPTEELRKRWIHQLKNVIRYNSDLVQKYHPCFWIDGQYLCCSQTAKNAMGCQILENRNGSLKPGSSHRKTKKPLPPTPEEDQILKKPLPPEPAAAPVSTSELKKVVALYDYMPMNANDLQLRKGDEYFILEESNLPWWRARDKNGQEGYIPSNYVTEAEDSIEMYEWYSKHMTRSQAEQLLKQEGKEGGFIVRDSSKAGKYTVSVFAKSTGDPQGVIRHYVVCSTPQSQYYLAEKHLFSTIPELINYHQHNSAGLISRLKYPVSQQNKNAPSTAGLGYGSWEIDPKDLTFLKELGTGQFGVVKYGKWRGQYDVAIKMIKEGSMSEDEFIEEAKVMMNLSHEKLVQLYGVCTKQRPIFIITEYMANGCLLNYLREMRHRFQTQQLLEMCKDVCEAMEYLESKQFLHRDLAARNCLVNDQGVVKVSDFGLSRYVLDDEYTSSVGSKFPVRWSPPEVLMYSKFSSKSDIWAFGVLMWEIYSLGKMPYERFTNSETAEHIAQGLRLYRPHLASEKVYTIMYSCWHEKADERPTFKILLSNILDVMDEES

The test addresses BTK (Homo sapiens, UniProt Q06187). The experiment in a line: Inhibitory activity against BTK (ADP-Glo + BTK Kinase enzyme system kit).
Turning to `C=CC(=O)N1CC2CC1C(n1nc(-c3ccc(NC(=O)c4cccc(N(C)C)c4)cc3)c3c(N)ncnc31)C2` (stereo not drawn) [Ex. 50, N-(4-(1-(2-acryloyl-2-azabicyclo[2.2.1]heptan-6-yl)-4-amino-1H-pyrazolo[3,4-d]pyrimidin-3-yl)phenyl)-3-(dimethylamino)benzamide], the half-maximal inhibitory concentration (IC50) (usually the midpoint of a concentration-inhibition curve) worked out at 28.6 nM. Next, `Nc1ncnc2c1c(-c1ccc(Oc3ccccc3)cc1)nn2C1CC2CC1N(C(=O)/C=C/CBr)C2` (stereo not drawn) [Ex. 44, (E)-1-(6-(4-amino-3-(4-phenoxyphenyl)-1H-pyrazolo[3,4-d]pyrimidin-1-yl)-2-azabicyclo[2.2.1]heptan-2-yl)-4-bromobut-2-en-1-one]: 5.9 nM. Turning to `C=CC(=O)N1C[C@@H]2C[C@H]1[C@@H](n1nc(-c3ccc(C(=O)NC)cc3F)c3c(N)ncnc31)C2` [Ex. 79, 4-(1-((1S,4R,6S)-2-acryloyl-2-azabicyclo[2.2.1]heptan-6-yl)-4-amino-1H-pyrazolo[3,4-d]pyrimidin-3-yl)-3-fluoro-N-methylbenzamide], the IC50 stood at 77.1 nM. The result for `C=CC(=O)N1CC2CC1C(n1nc(-c3ccc(C(=O)Nc4cnn(C)c4)cc3)c3c(N)ncnc31)C2` (stereo not drawn) [Ex. 56, 4-(1-(2-acryloyl-2-azabicyclo[2.2.1]heptan-6-yl)-4-amino-1H-pyrazolo[3,4-d]pyrimidin-3-yl)-N-(1-methyl-1H-pyrazol-4-yl)benzamide] reads 143 nM; that for `CC(C)C=C(C#N)C(=O)N1C[C@H]2CC(n3nc(-c4ccc(C(=O)Nc5ccccn5)cc4)c4c(N)ncnc43)[C@H]1C2` (stereo partly drawn) [Ex. 76, 4-(4-amino-1-((1R,4R)-2-(2-cyano-4-methylpent-2-enoyl)-2-azabicyclo[2.2.1]heptan-6-yl)-1H-pyrazolo[3,4-d]pyrimidin-3-yl)-N-(pyridin-2-yl)benzamide], 10 nM. The result for `C=CC(=O)N1CC2CC1C(n1nc(-c3ccc(Oc4cccc(N)c4)cc3)c3c(N)ncnc31)C2` (stereo not drawn) [Ex. 51, 1-(6-(4-amino-3-(4-(3-aminophenoxy)phenyl)-1H-pyrazolo[3,4-d]pyrimidin-1-yl)-2-azabicyclo[2.2.1]heptan-2-yl)prop-2-en-1-one hydrochloride] reads 107 nM; that for `C#CC(=O)N1C[C@@H]2C[C@H]1C[C@H]2n1nc(-c2ccc(Oc3ccccc3)cc2)c2c(N)ncnc21` [Ex. 13, 1-((1S,4S,5R)-5-(4-amino-3-(4-phenoxyphenyl)-1H-pyrazolo[3,4-d]pyrimidin-1-yl)-2-azabicyclo[2.2.1]heptan-2-yl)prop-2-yn-1-one], 2 nM. The result for `C=CC(=O)N1CC2CC1C(n1nc(-c3ccc(COC)cc3)c3c(N)ncnc31)C2` (stereo not drawn) [Ex. 27, 1-(6-(4-amino-3-(4-(methoxymethyl)phenyl)-1H-pyrazolo[3,4-d]pyrimidin-1-yl)-2-azabicyclo[2.2.1]heptan-2-yl)prop-2-en-1-one] reads 29.6 nM; that for `C=CC(=O)N1CC2CC1C(n1nc(-c3ccc(Oc4ccncc4)cc3)c3c(N)ncnc31)C2` (stereo not drawn) [Ex. 36, 1-(6-(4-amino-3-(4-(pyridin-4-yloxy)phenyl)-1H-pyrazolo[3,4-d]pyrimidin-1-yl)-2-azabicyclo[2.2.1]heptan-2-yl)prop-2-en-1-one], over 1000 nM; that for `CC#CC(=O)N1CC2CC1C(n1nc(-c3ccc(Oc4ccccc4)cc3)c3c(N)ncnc31)C2` (stereo not drawn) [Ex. 5, 1-(6-(4-amino-3-(4-phenoxyphenyl)-1H-pyrazolo[3,4-d]pyrimidin-1-yl)-2-azabicyclo[2.2.1]heptan-2-yl)but-2-yn-1-one], 27.6 nM. Consider `C=C(C)C(=O)N1C[C@@H]2C[C@@H]1[C@@H](n1nc(-c3ccc(C(=O)Nc4ccccn4)cc3)c3c(N)ncnc31)C2` [Ex. 84, 4-(4-amino-1-((1R,4R,6S)-2-methacryloyl-2-azabicyclo[2.2.1]heptan-6-yl)-1H-pyrazolo[3,4-d]pyrimidin-3-yl)-N-(pyridin-2-yl)benzamide], for which the 50% inhibitory concentration (IC50) was over 100 nM. Turning to `C=CC(=O)N1C[C@@H]2C[C@H]1[C@@H](n1nc(-c3ccc(C(=O)Nc4ncccc4C)cc3)c3c(N)ncnc31)C2` [Ex. 77, 4-(1-((1S,4R,6S)-2-acryloyl-2-azabicyclo[2.2.1]heptan-6-yl)-4-amino-1H-pyrazolo[3,4-d]pyrimidin-3-yl)-N-(3-methylpyridin-2-yl)benzamide], the IC50 was 6.4 nM. `C=CC(=O)N1CC2CC1C(n1nc(-c3ccc(C(=O)Nc4cccc(C(C)C)c4)cc3)c3c(N)ncnc31)C2` (stereo not drawn) [Ex. 47, 4-(1-(2-acryloyl-2-azabicyclo[2.2.1]heptan-6-yl)-4-amino-1H-pyrazolo[3,4-d]pyrimidin-3-yl)-N-(3-isopropylphenyl)benzamide]: the concentration for half-maximal inhibition (IC50) is 10.9 nM.

Turning to `N#CCC(=O)N1C[C@@H]2C[C@@H]1[C@@H](n1nc(-c3ccc(C(=O)Nc4ccccn4)cc3)c3c(N)ncnc31)C2` [Ex. 74, 4-(4-amino-1-((1R,4R,6S)-2-(2-cyanoacetyl)-2-azabicyclo[2.2.1]heptan-6-yl)-1H-pyrazolo[3,4-d]pyrimidin-3-yl)-N-(pyridin-2-yl)benzamide], the half-maximal inhibitory concentration (IC50) stood at 123 nM. Regarding `C=CC(=O)N1CC2CC1CC2n1nc(-c2cccc(C(=O)Nc3ccccc3)c2)c2c(N)ncnc21` (stereo not drawn) [Ex. 24, 3-(1-(2-acryloyl-2-azabicyclo[2.2.1]heptan-5-yl)-4-amino-1H-pyrazolo[3,4-d]pyrimidin-3-yl)-N-phenylbenzamide], the IC50 was found to be 560 nM. Next, `C/C=C/C(=O)N1CC2CC1C(n1nc(-c3ccc(Oc4ccccc4)cc3)c3c(N)ncnc31)C2` (stereo not drawn) [Ex. 3, (E)-1-(6-(4-amino-3-(4-phenoxyphenyl)-1H-pyrazolo[3,4-d]pyrimidin-1-yl)-2-azabicyclo[2.2.1]heptan-2-yl)but-2-en-1-one]: 202 nM; `Nc1ncnc2c1c(-c1ccc(Oc3ccccc3)cc1)nn2C1CC2CC1CN2C(=O)/C=C/CN1CCCCC1` (stereo not drawn) [Ex. 66, (E)-1-(5-(4-amino-3-(4-phenoxyphenyl)-1H-pyrazolo[3,4-d]pyrimidin-1-yl)-2-azabicyclo[2.2.1]heptan-2-yl)-4-(piperidin-1-yl)but-2-en-1-one]: 49.6 nM; `C#CC(=O)N1CC2CC1C(n1nc(-c3cccc(C(=O)Nc4ccccc4)c3)c3c(N)ncnc31)C2` (stereo not drawn) [Ex. 18, 3-(4-amino-1-(2-propioloyl-2-azabicyclo[2.2.1]heptan-6-yl)-1H-pyrazolo[3,4-d]pyrimidin-3-yl)-N-phenylbenzamide]: 6.9 nM. Next, `C=CC(=O)N1CC2CC1C(n1nc(-c3ccc(NC(=O)c4ccccn4)cc3)c3c(N)ncnc31)C2` (stereo not drawn) [Ex. 38, N-(4-(1-(2-acryloyl-2-azabicyclo[2.2.1]heptan-6-yl)-4-amino-1H-pyrazolo[3,4-d]pyrimidin-3-yl)phenyl)picolinamide]: 8.2 nM; `CCC#CC(=O)N1CC2CC1C(n1nc(-c3ccc(Oc4ccccc4)cc3)c3c(N)ncnc31)C2` (stereo not drawn) [Ex. 16, 1-(6-(4-amino-3-(4-phenoxyphenyl)-1H-pyrazolo[3,4-d]pyrimidin-1-yl)-2-azabicyclo[2.2.1]heptan-2-yl)pent-2-yn-1-one]: over 1000 nM; `Nc1ncnc2c1c(-c1ccc(Oc3ccccc3)cc1)nn2C1CC2CC1N(C(=O)C#CC1CC1)C2` (stereo not drawn) [Ex. 28, 1-(6-(4-amino-3-(4-phenoxyphenyl)-1H-pyrazolo[3,4-d]pyrimidin-1-yl)-2-azabicyclo[2.2.1]heptan-2-yl)-3-cyclopropylprop-2-yn-1-one]: 25.2 nM.

Turning to `C=CC(=O)N1CC2CC1CC2n1nc(-c2cccc(Oc3ccccc3)c2)c2c(N)ncnc21` (stereo not drawn) [Ex. 25, 1-(5-(4-amino-3-(3-phenoxyphenyl)-1H-pyrazolo[3,4-d]pyrimidin-1-yl)-2-azabicyclo[2.2.1]heptan-2-yl)prop-2-en-1-one], the half-maximal inhibitory concentration (IC50) was found to be 72.3 nM. With `C#CC(=O)N1CC2CC1C(n1nc(-c3ccc(Nc4ccccc4)cc3)c3c(N)ncnc31)C2` (stereo not drawn) [Ex. 31, 1-(6-(4-amino-3-(4-(phenylamino)phenyl)-1H-pyrazolo[3,4-d]pyrimidin-1-yl)-2-azabicyclo[2.2.1]heptan-2-yl)prop-2-yn-1-one], the IC50 was determined as 12.5 nM. The result for `C=CC(=O)N1CC2CC1C(n1nc(-c3cccc(C(=O)Nc4ccc(C(C)C)cc4)c3)c3c(N)ncnc31)C2` (stereo not drawn) [Ex. 8, 3-(1-(2-acryloyl-2-azabicyclo[2.2.1]heptan-6-yl)-4-amino-1H-pyrazolo[3,4-d]pyrimidin-3-yl)-N-(4-isopropylphenyl)benzamide] reads 139 nM; that for `C=CC(=O)N1CC2CC1C(n1nc(-c3cccc(C(=O)Nc4ccccc4)c3)c3c(N)ncnc31)C2` (stereo not drawn) [Ex. 21, 3-(1-(2-acryloyl-2-azabicyclo[2.2.1]heptan-6-yl)-4-amino-1H-pyrazolo[3,4-d]pyrimidin-3-yl)-N-phenylbenzamide], 63 nM; that for `C=CC(=O)N1CC2CC1CC2n1nc(-c2ccc(C(=O)Nc3ccccc3)cc2)c2c(N)ncnc21` (stereo not drawn) [Ex. 23, 4-(1-(2-acryloyl-2-azabicyclo[2.2.1]heptan-5-yl)-4-amino-1H-pyrazolo[3,4-d]pyrimidin-3-yl)-N-phenylbenzamide], 78.8 nM. Next, `CN(C)C/C=C/C(=O)N1CC2CC1C(n1nc(-c3ccc(Oc4ccccc4)cc3)c3c(N)ncnc31)C2` (stereo not drawn) [Ex. 45, (E)-1-(6-(4-amino-3-(4-phenoxyphenyl)-1H-pyrazolo[3,4-d]pyrimidin-1-yl)-2-azabicyclo[2.2.1]heptan-2-yl)-4-(dimethylamino)but-2-en-1-one]: 11.4 nM; `C=CC(=O)N1CC2CC1C(n1nc(-c3ccc(NC(=O)c4ccccc4N(C)C)cc3)c3c(N)ncnc31)C2` (stereo not drawn) [Ex. 57, N-(4-(1-(2-acryloyl-2-azabicyclo[2.2.1]heptan-6-yl)-4-amino-1H-pyrazolo[3,4-d]pyrimidin-3-yl)phenyl)-2-(dimethylamino)benzamide]: 8.8 nM; `Nc1ncnc2c1c(-c1ccc(Oc3ccccc3)cc1)nn2C1CC2CC1CN2C(=O)/C=C/CBr` (stereo not drawn) [Ex. 65, (E)-1-(5-(4-amino-3-(4-phenoxyphenyl)-1H-pyrazolo[3,4-d]pyrimidin-1-yl)-2-azabicyclo[2.2.1]heptan-2-yl)-4-bromobut-2-en-1-one]: 6.7 nM. Next, `CC#CC(=O)N1CC2CC1C(n1nc(-c3ccc(C(=O)Nc4ccccc4)cc3)c3c(N)ncnc31)C2` (stereo not drawn) [Ex. 20, 4-(4-amino-1-(2-(but-2-ynoyl)-2-azabicyclo[2.2.1]heptan-6-yl)-1H-pyrazolo[3,4-d]pyrimidin-3-yl)-N-phenylbenzamide]: over 1000 nM.
